# US9969742B2, “Imidazotriazinone compounds” (Ironwood Pharmaceuticals, Inc., priority 2012, dated 2018)
# pIC50: −log10 of the molar value.
# Target: T1, PDE9A2 (Homo sapiens, UniProt O76083)
# T1 construct: purchased Reaction Biology Corporation, Malvern, Pa
# Assay: Phosphodiesterase enzyme screening assay, PDE9A2
# Assay type: biochemical
# Details: 4.0 μM cGMP substrate, 1 hour at R.T.; read-out: Band (PDE9A2 IC50)
# Text: Compounds of the invention were screened against PDE1A, PDE1B, PDE2A, PDE3A, PDE3B, PDE4A1A, PDE4B1, PDE4D3, PDE5A1, PDE6C, PDE7A, PDE8A1, PDE9A2, PDE10A2 AND PDE11A isoforms of the phosphodiesterase enzyme to determine activity and overall selectivity through comparative analysis. […] Where 8-methoxy-IBMX and Zaprinast were used as reference inhibitors.
# The phosphodiesterase enzyme isoforms were obtained from a commercial retailer (Reaction Biology Corporation, Malvern, Pa.) for use in the instant screening assay.
# The analysis was completed using the Caliper LabChip 3000 and a 12-sipper LabChip. LabChip assays are separations-based, meaning that the product and substrate are electrophoretically separated, thereby minimizing interferences and yielding the highest data quality available on any screening platform. […] High Z′ values, few false positives, few false negatives and analytical quality reproducibility are the reasons cited for the increasing reliance on the LabChip assays.
# The off-chip incubation mobility-shift phosphodiesterase assay uses a microfluidic chip to measure the conversion of a fluorescent cyclic AMP substrate to a 5′-AMP product, or a cyclic GMP substrate to a 5′-GMP product. The reaction mixture, from a microtiter plate well, is introduced through a capillary sipper onto the chip, where the fluorescent substrate and product are separated by electrophoresis and detected via laser-induced fluorescence. […] The precision of microfluidics allows researchers to detect subtle interactions between drug candidates and therapeutic targets.
# Reactions were carried out in 100 mM HEPES (pH 7.5), 5 mM MgCl2, 1 mM DTT, 0.003% Brij, 4.0 μM cGMP substrate. The reaction was started by addition of cGMP or cAMP and incubated for 1 hour at R.T. The reaction was terminated by the addition of stop buffer containing 100 mM HEPES (pH 7.5), 15 mM EDTA, 0.015% Brij-35, 5% DMSO. Cyclic AMP/GMP substrate and 5′-AMP/5′-GMP product were separated by charge using electrophoretic mobility shift. Product formed was compared to control wells to determine inhibition or enhancement of enzyme activity.
# Data points were averages of quadruplicate wells and error bars represented the SEM for each point.
# T1 sequence (O76083 1-533 isoform O76083-2): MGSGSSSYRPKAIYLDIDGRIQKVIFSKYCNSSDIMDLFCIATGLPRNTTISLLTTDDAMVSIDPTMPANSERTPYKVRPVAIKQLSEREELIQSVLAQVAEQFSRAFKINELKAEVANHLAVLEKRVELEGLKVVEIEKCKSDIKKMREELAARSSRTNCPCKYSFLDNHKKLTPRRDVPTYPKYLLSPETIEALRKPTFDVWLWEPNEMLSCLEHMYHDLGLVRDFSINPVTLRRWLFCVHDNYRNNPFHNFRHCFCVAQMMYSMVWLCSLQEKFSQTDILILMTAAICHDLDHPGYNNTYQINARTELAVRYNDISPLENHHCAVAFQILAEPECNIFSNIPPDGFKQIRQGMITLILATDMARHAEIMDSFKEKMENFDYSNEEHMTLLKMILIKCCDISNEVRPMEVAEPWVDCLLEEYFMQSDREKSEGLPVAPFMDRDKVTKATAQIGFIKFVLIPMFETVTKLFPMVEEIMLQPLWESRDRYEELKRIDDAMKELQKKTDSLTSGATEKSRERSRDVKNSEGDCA
row,SMILES,pIC50
1,"CC1CN(Cc2nc3ccccn3n2)CC1c1nn2c(CC(F)(F)F)ncc2c(=O)[nH]1 (stereo not drawn) [2-((3,4-trans)-1-([1,2,4]triazolo[1,5-a]pyridin-2-ylmethyl)-4-methylpyrrolidin-3-yl)-7-(2,2,2-trifluoroethyl)imidazo[5,1-f][1,2,4]triazin-4(3H)-one]",> 6.00
2,"CC1CN(Cc2nc3ccccn3n2)CC1c1nn2c(-c3ccccc3F)ncc2c(=O)[nH]1 (single isomer, unassigned; (+)) [(+)-2-((3,4-trans)-1-([1,2,4]triazolo[1,5-a]pyridin-2-ylmethyl)-4-methylpyrrolidin-3-yl)-7-(2-fluorophenyl)imidazo[5,1-f][1,2,4]triazin-4(3H)-one]",> 6.00

# Same assay, conditions: Table 1; 10 concentrations; 4.0 μM cGMP substrate; 1 hour at R.T.; read-out: Band (PDE9A2 IC50)
row,SMILES,pIC50
1,"CC1CN(C(=O)c2ccc(F)cc2)CC1c1nn2c(C3CCOCC3)ncc2c(=O)[nH]1 (single isomer, unassigned; (+)) [(+)-2-((3,4-trans)-1-(4-fluorobenzoyl)-4-methylpyrrolidin-3-yl)-7-(tetrahydro-2H-pyran-4-yl)imidazo[5,1-f][1,2,4]triazin-4(3H)-one]",5.00 to 6.00
2,"CC1CN(S(=O)(=O)c2ccc(F)cc2)CC1c1nn2c(C3CCOCC3)ncc2c(=O)[nH]1 (single isomer, unassigned; (-)) [(−)-2-((3,4-trans)-1-((4-fluorophenyl)sulfonyl)-4-methylpyrrolidin-3-yl)-7-(tetrahydro-2H-pyran-4-yl)imidazo[5,1-f][1,2,4]triazin-4(3H)-one]",5.00 to 6.00
3,"CC1CN(C(=O)c2ccc(F)cc2)CC1c1nn2c(C3CCOCC3)ncc2c(=O)[nH]1 (single isomer, unassigned; (-)) [(−)-2-((3,4-trans)-1-(4-fluorobenzoyl)-4-methylpyrrolidin-3-yl)-7-(tetrahydro-2H-pyran-4-yl)imidazo[5,1-f][1,2,4]triazin-4(3H)-one]",> 6.00
4,"CC1CN(C(=O)c2cnccn2)CC1c1nn2c(C3CCOCC3)ncc2c(=O)[nH]1 (single isomer, unassigned; (-)) [(−)-2-((3,4-trans)-4-methyl-1-(pyrazine-2-carbonyl)pyrrolidin-3-yl)-7-(tetrahydro-2H-pyran-4-yl)imidazo[5,1-f][1,2,4]triazin-4(3H)-one]",> 6.00
5,"CC1CN(Cc2ccc(F)cc2)CC1c1nn2c(C3CCOCC3)ncc2c(=O)[nH]1 (single isomer, unassigned; (-)) [(−)-2-((3,4-trans)-1-(4-fluorobenzyl)-4-methylpyrrolidin-3-yl)-7-(tetrahydro-2H-pyran-4-yl)imidazo[5,1-f][1,2,4]triazin-4(3H)-one]",> 6.00
6,"CC1CN(S(=O)(=O)c2ccccc2C#N)CC1c1nn2c(C3CCOCC3)ncc2c(=O)[nH]1 (single isomer, unassigned; (-)) [(−)-2-(((3,4-trans)-3-methyl-4-(4-oxo-7-(tetrahydro-2H-pyran-4-yl)-3,4-dihydroimidazo[5,1-f][1,2,4]triazin-2-yl)pyrrolidin-1-yl)sulfonyl)benzonitrile]",> 6.00
7,"CC1CN(Cc2ccccc2)CC1c1nn2c(C3CCOC3)ncc2c(=O)[nH]1 (single isomer, unassigned; (-)) [(−)-2-(1-(3,4-trans)-benzyl-4-methylpyrrolidin-3-yl)-7-(tetrahydrofuran-3-yl)imidazo[5,1-f][1,2,4]triazin-4(3H)-one]",5.00 to 6.00
8,"Cc1ccc(F)cc1-c1ncc2c(=O)[nH]c(C3CN(Cc4ccccc4)CC3C)nn12 (single isomer, unassigned; (+)) [(+)-2-((3,4-trans)-1-benzyl-4-methylpyrrolidin-3-yl)-7-(5-fluoro-2-methylphenyl)imidazo[1,5-f][1,2,4]triazin-4(3H)-one]",> 6.00
9,"Cc1ccc(F)cc1-c1ncc2c(=O)[nH]c(C3CN(Cc4ccccc4)CC3C)nn12 (single isomer, unassigned; (-)) [(−)-2-((3,4-trans)-1-benzyl-4-methylpyrrolidin-3-yl)-7-(5-fluoro-2-methylphenyl)imidazo[1,5-f][1,2,4]triazin-4(3H)-one]",5.00 to 6.00
10,"CC1CN(Cc2ncccn2)CC1c1nn2c(C3CCOC3)ncc2c(=O)[nH]1 (single isomer, unassigned; (+)) [(+)-2-((3,4-trans)-4-methyl-1-(pyrimidin-2-ylmethyl)pyrrolidin-3-yl)-7-(tetrahydrofuran-3-yl)imidazo[5,1-f][1,2,4]triazin-4(3H)-one]",> 6.00
11,"CC1CN(C(C)c2ccccc2)CC1c1nn2c(C3CCOCC3)ncc2c(=O)[nH]1 (single isomer, unassigned; (-))",> 6.00
12,"CC1CN(C(=O)c2ccncc2)CC1c1nn2c(C3CCOCC3)ncc2c(=O)[nH]1 (single isomer, unassigned; (-)) [(−)-2-((3,4-trans)-1-isonicotinoyl-4-methylpyrrolidin-3-yl)-7-(tetrahydro-2H-pyran-4-yl)imidazo[5,1-f][1,2,4]triazin-4(3H)-one]",> 6.00
13,"CC1CN(C(=O)c2ccccc2)CC1c1nn2c(C3CCOCC3)ncc2c(=O)[nH]1 (single isomer, unassigned; (+)) [(+)-2-((3,4-trans)-1-benzoyl-4-methylpyrrolidin-3-yl)-7-(tetrahydro-2H-pyran-4-yl)imidazo[5,1-f][1,2,4]triazin-4(3H)-one]",5.00 to 6.00
14,"CCS(=O)(=O)N1CC(C)C(c2nn3c(C4CCOCC4)ncc3c(=O)[nH]2)C1 (single isomer, unassigned; (+)) [(+)-2-((3,4-trans)-1-(ethylsulfonyl)-4-methylpyrrolidin-3-yl)-7-(tetrahydro-2H-pyran-4-yl)imidazo[5,1-f][1,2,4]triazin-4(3H)-one]",5.00 to 6.00
15,"CC1CN(S(=O)(=O)c2ccccc2)CC1c1nn2c(C3CCOCC3)ncc2c(=O)[nH]1 (single isomer, unassigned; (+)) [(+)-2-((3,4-trans)-4-methyl-1-(phenylsulfonyl)pyrrolidin-3-yl)-7-(tetrahydro-2H-pyran-4-yl)imidazo[5,1-f][1,2,4]triazin-4(3H)-one]",> 6.00

# Same assay, conditions: Table 2; 10 concentrations; 4.0 μM cGMP substrate; 1 hour at R.T.; read-out: Band (PDE9A2 IC50)
row,SMILES,pIC50
1,"CC1CN(Cc2ncc(C(F)(F)F)cn2)CC1c1nn2c(C3CCOCC3)ncc2c(=O)[nH]1 (single isomer, unassigned; (+)) [(+)-2-((3,4-trans)-4-methyl-1-((5-(trifluoromethyl)pyrimidin-2-yl)methyl)pyrrolidin-3-yl)-7-(tetrahydro-2H-pyran-4-yl)imidazo[5,1-f][1,2,4]triazin-4(3H)-one]",> 6.00
2,"CC1CN(Cc2ncc(F)c(N3CCOCC3)n2)CC1c1nn2c(C3CCOCC3)ncc2c(=O)[nH]1 (single isomer, unassigned; (+)) [(+)-2-((3,4-trans)-1-((5-fluoro-4-morpholinopyrimidin-2-yl)methyl)-4-methylpyrrolidin-3-yl)-7-(tetrahydro-2H-pyran-4-yl)imidazo[5,1-f][1,2,4]triazin-4(3H)-one]",> 6.00

# Same assay, conditions: read-out: Band (PDE9A2 IC50)
row,SMILES,pIC50
1,"CC1CN(CC2CCCC2)CC1c1nn2c(C3CCOCC3)ncc2c(=O)[nH]1 (single isomer, unassigned; (+)) [(+)-2-((3,4-trans)-1-(cyclopentylmethyl)-4-methylpyrrolidin-3-yl)-7-(tetrahydro-2H-pyran-4-yl)imidazo[5,1-f][1,2,4]triazin-4(3H)-one]",> 6.00
2,"CC1CN(Cc2ccccc2)CC1c1nn2c(C3CCCC3)ncc2c(=O)[nH]1 (single isomer, unassigned; (+)) [(+)-2-((3,4-trans)-1-benzyl-4-methylpyrrolidin-3-yl)-7-cyclopentylimidazo[5,1-f][1,2,4]triazin-4(3H)-one]",> 6.00
3,"CC1CN(CC2CCNCC2)CC1c1nn2c(C3CCOCC3)ncc2c(=O)[nH]1 (single isomer, unassigned; (+))",> 6.00
4,"CC1CN(CC2CCN(C)CC2)CC1c1nn2c(C3CCOCC3)ncc2c(=O)[nH]1 (single isomer, unassigned; (+)) [(+)-2-((3,4-trans)-4-methyl-1-((1-methylpiperidin-4-yl)methyl)pyrrolidin-3-yl)-7-(tetrahydro-2H-pyran-4-yl)imidazo[5,1-f][1,2,4]triazin-4(3H)-one]",5.00 to 6.00
5,"CC1CN(Cc2ccccn2)CC1c1nn2c(-c3ccc(F)cc3)ncc2c(=O)[nH]1 (single isomer, unassigned; (+)) [(+)-7-(4-fluorophenyl)-2-((3,4-trans)-4-methyl-1-(pyridin-2-ylmethyl)pyrrolidin-3-yl)imidazo[5,1-f][1,2,4]triazin-4(3H)-one]",5.00 to 6.00
6,"CCC(CC)c1ncc2c(=O)[nH]c(C3CN(Cc4ncccn4)CC3C)nn12 (single isomer, unassigned; (+)) [(+)-2-((3,4-trans)-4-methyl-1-(pyrimidin-2-ylmethyl)pyrrolidin-3-yl)-7-(pentan-3-yl)imidazo[5,1-f][1,2,4]triazin-4(3H)-one]",> 6.00
